# Measured values as given in patent publication US7462600B2, “Macrolides” (Pfizer Inc, priority 2004, dated 2008).
# Like-named read-outs stand apart in the source and are kept apart here.
# Legend:
# Format in all cases: cell-based
# [1] = tested on: Streptococcus pneumoniae 1016; assay: MIC, microtiter broth dilution (NCCLS M100-S14), S. pneumoniae 1016 (susceptible)
# In short: (§1)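 MIC read-out follows NCCLS M100-S14 interpretation of microtiter tray broth dilution. Test agents are prepared as DMSO stocks at 40 mg/ml.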
# [2] = tested on: Haemophilus influenzae 1218; assay: MIC, microtiter broth dilution (NCCLS M100-S14), H. influenzae 1218 (susceptible)
# In short: as §1
# [3] = tested on: Streptococcus pyogenes 1079; assay: MIC, microtiter broth dilution (NCCLS M100-S14), S. pyogenes 1079 (ermB)
# In short: as §1
# [4] = tested on: Streptococcus pneumoniae 1175; details: microtiter broth dilution
# In short: as §1
# [5] = tested on: Streptococcus pneumoniae 1095; details: microtiter broth dilution
# In short: as §1
# [6] = S. pneumoniae 1016 (susceptible)
# [7] = H. influenzae 1218 (susceptible)
Compound,MIC S. pneumo. 1016 ([1]; Streptococcus pneumoniae 1016) [µg/mL],MIC H. influenzae 1218 ([2]; Haemophilus influenzae 1218) [µg/mL],MIC S. pyogenes 1079 ([3]; Streptococcus pyogenes 1079) [µg/mL],MIC S. pneumo. 1175 ([4]; Streptococcus pneumoniae 1175) [µg/mL],MIC S. pneumo. 1095 ([5]; Streptococcus pneumoniae 1095) [µg/mL],"MIC S. pneumo. 1016 [1, 6] [µg/mL]","MIC H. influenzae 1218 [2, 7] [µg/mL]",MIC S. pyogenes 1079 ([3]; S. pyogenes 1079 (ermB)) [µg/mL],MIC S. pneumo. 1175 ([4]; S. pneumoniae 1175 (mefA)) [µg/mL],MIC S. pneumo. 1095 ([5]; S. pneumoniae 1095 (ermB)) [µg/mL]
"CCC1OC(=O)C(C)C(=O)C(C)C(OC2OC(C)CC(N(C)C)C2O)C(C)(OC)CC(C)C(=O)C(C)C2N(C3CN(Cc4c(C)ccc5ccccc45)C3)C(=O)OC12C (stereo not shown) [Example 1.92, 3-descladinosyl-11,12-dideoxy-6-O-methyl-3-oxo-12,11-(oxycarbonyl-(1-(2-methylnaphthalene-1-methyl)-azetidin-3-yl)-imino)erythromycin A]",<0.063,2,2,<0.063,0.125,,,,,
"CCC1OC(=O)C(C)C(=O)C(C)C(OC2OC(C)CC(N(C)C)C2O)C(C)(OC)CC(C)C(=O)C(C)C2N(C3CN(Cc4ccnc5ccncc45)C3)C(=O)OC12C (stereo not shown) [Example 1.27, 3-descladinosyl-11,12-dideoxy-6-O-methyl-3-oxo-12,11-(oxycarbonyl-(1-((1,6-naphthyridin-4-yl)-methyl)-azetidin-3-yl)-imino)-erythromycin A]",<0.06,0.5,2,0.5,<0.06,,,,,
CCC1OC(=O)C(C)C(=O)C(C)C(OC2OC(C)CC(N(C)C)C2O)C(C)(OC)CC(C)C(=O)C(C)C2N(CC3CCN(C(=O)c4ccc5ncccc5c4)C3)C(=O)OC12C (stereo not shown) [11.18],,,,,,<0.06,2,>64.00,2,8
"CCC1OC(=O)C(C)C(=O)C(C)C(OC2OC(C)CC(N(C)C)C2O)C(C)(OC)CC(C)C(=O)C(C)C2N(C3CN(S(=O)(=O)c4ccc(N5CCOCC5)c(F)c4)C3)C(=O)OC12C (stereo not shown) [Example 3.46, 3-fluoro-4-morpholinobenzenesulfonyl]",<0.06,2,32,<0.06,0.5,,,,,
"CCc1noc(-c2cccc(CN3CC(N4C(=O)OC5(C)C(CC)OC(=O)C(C)C(=O)C(C)C(OC6OC(C)CC(N(C)C)C6O)C(C)(OC)CC(C)C(=O)C(C)C45)C3)c2)n1 (stereo not shown) [Example 1.44, 3-(3-ethyl-[1,2,4]oxadiazol-5-yl)benzyl]",<0.06,16,>64.00,0.5,<0.06,,,,,
"CCC1OC(=O)C(C)C(=O)C(C)C(OC2OC(C)CC(N(C)C)C2O)C(C)(OC)CC(C)C(=O)C(C)C2N(C3CN(Cc4ccncc4Br)C3)C(=O)OC12C (stereo not shown) [Example 1.77, 3-descladinosyl-11,12-dideoxy-6-O-methyl-3-oxo-12,11-(oxycarbonyl-(1-(3-bromopyridine-4-methyl)-azetidin-3-yl)-imino)-erythromycin A]",<0.063,0.5,1,<0.063,<0.063,,,,,
CCC1OC(=O)C(C)C(=O)C(C)C(OC2OC(C)CC(N(C)C)C2O)C(C)(OC)CC(C)C(=O)C(C)C2N(CC3CCN(C(=O)c4ccc5cnccc5n4)C3)C(=O)OC12C (stereo not shown) [13.09],,,,,,<0.06,4,>64.00,1,>64.00
"CCC1OC(=O)C(C)C(=O)C(C)C(OC2OC(C)CC(N(C)C)C2O)C(C)(OC)CC(C)C(=O)C(C)C2N(C3CN(S(=O)(=O)c4cccc5cnncc45)C3)C(=O)OC12C (stereo not shown) [Example 3.92, 3-descladinosyl-11,12-dideoxy-6-O-methyl-3-oxo-12,11-(oxycarbonyl-(1-(phthalazine-5-sulfonyl)-azetidin-3-yl)-imino)-erythromycin A]",<0.06,1,4,<0.06,<0.06,,,,,
CCC1OC(=O)C(C)C(=O)C(C)C(OC2OC(C)CC(N(C)C)C2O)C(C)(OC)CC(C)C(=O)C(C)C2N(CC3CCCN3Cc3ccno3)C(=O)OC12C (stereo not shown) [12.04],,,,,,<0.06,2,>64.00,1,4
CCC1OC(=O)C(C)C(=O)C(C)C(OC2OC(C)CC(N(C)C)C2O)C(C)(OC)CC(C)C(=O)C(C)C2N(CC3CN(S(=O)(=O)c4cccc(C#N)c4)C3)C(=O)OC12C (stereo not shown) [4.07],<0.06,1,>64.00,0.19,24,,,,,
"3-descladinosyl-11,12-dideoxy-6-O-methyl-3-oxo-12,11-(oxycarbonyl-(1-(quinoline-6-sulfonyl)-azetidin-3-yl)-imino)-erythromycin A [Example 3.89]",<0.06,1,8,<0.06,<0.06,,,,,
"CCC1OC(=O)C(C)C(=O)C(C)C(OC2OC(C)CC(N(C)C)C2O)C(C)(OC)CC(C)C(=O)C(C)C2N(C3CN(S(=O)(=O)c4ccc5c(c4)N(C)S(=O)(=O)N5C)C3)C(=O)OC12C (stereo not shown) [Example 3.116, 3-descladinosyl-11,12-dideoxy-6-O-methyl-3-oxo-12,11-(oxycarbonyl-(1-(1,3-dimethyl-2,1,3-benzothiadiazole-2,2-dioxide-0-5-sulfonyl)-azetidin-3-yl)-imino)-erythromycin A]",<0.063,0.5,0.5,<0.063,<0.063,,,,,
CC[C@H]1OC(=O)[C@H](C)C(=O)[C@H](C)[C@@H](O[C@@H]2O[C@H](C)C[C@H](N(C)C)[C@H]2O)[C@](C)(OC)C[C@@H](C)C(=O)[C@H](C)[C@H]2N(CC3(O)CN(C(=O)c4cn5ccccc5n4)C3)C(=O)O[C@]12C.O=CO [7.29],,,,,,<0.06,1,>64.00,8,0.25
CCC1OC(=O)C(C)C(=O)C(C)C(OC2OC(C)CC(N(C)C)C2O)C(C)(OC)CC(C)C(=O)C(C)C2N(CC3CN(C(=O)c4ccc5cnccc5n4)C3)C(=O)OC12C.O=CO (stereo not shown) [4.41],<0.06,2,>64.00,<0.06,0.25,,,,,
"CCC1OC(=O)C(C)C(=O)C(C)C(OC2OC(C)CC(N(C)C)C2O)C(C)(OC)CC(C)C(=O)C(C)C2N(C3CN(S(=O)(=O)c4ccccc4F)C3)C(=O)OC12C (stereo not shown) [Example 3.07, 2-fluorobenzenesulfonyl]",<0.06,0.5,16,<0.06,<0.06,,,,,
CCC1OC(=O)C(C)C(=O)C(C)C(OC2OC(C)CC(N(C)C)C2O)C(C)(OC)CC(C)C(=O)C(C)C2N(C3CN(S(=O)(=O)c4cccc5nonc45)C3)C(=O)OC12C (stereo not shown) [Example 3.05],<0.06,0.25,16,<0.06,2,,,,,
"CCC1OC(=O)C(C)C(=O)C(C)C(OC2OC(C)CC(N(C)C)C2O)C(C)(OC)CC(C)C(=O)C(C)C2N(C3CN(C(C)c4ccnc5ncccc45)C3)C(=O)OC12C (stereo not drawn) [Example 1.23, 3-descladinosyl-11,12-dideoxy-6-O-methyl-3-oxo-12,11-(oxycarbonyl-(1-(1S-(1,8-naphthyridin4-yl)-ethyl)-azetidin-3-yl)-imino)-erythromycin A]",<0.06,0.5,16,0.25,<0.06,,,,,
CCC1OC(=O)C(C)(F)C(=O)C(C)C(OC2OC(C)CC(N(C)C)C2O)C(C)(OC)CC(C)C(=O)C(C)C2N(CC3CCCN3C(=O)c3ccc4cccnc4n3)C(=O)OC12C (stereo not shown) [10.30],,,,,,<0.06,2,32,0.12,<0.06
CCC1OC(=O)C(C)C(=O)C(C)C(OC2OC(C)CC(N(C)C)C2O)C(C)(OC)CC(C)C(=O)C(C)C2N(CC3CN(Cc4ccn(-c5cccnc5)n4)C3)C(=O)OC12C.O=CO (stereo not shown) [4.30],<0.06,0.5,>64.00,0.25,>64.00,,,,,
"CCC1OC(=O)C(C)C(=O)C(C)C(OC2OC(C)CC(N(C)C)C2O)C(C)(OC)CC(C)C(=O)C(C)C2N(CC3CCCN3C(=O)c3cccc4ncccc34)C(=O)OC12C [Example 12.11, 3-descladinosyl-11,12-dideoxy-6-O-methyl-3-oxo-12,11-(oxycarbonyl-((1-(quinoline-5-carbonyl)-(S)pyrrolidin-2-yl)-methyl)-imino)-erythromycin A]",,,,,,<0.06,8,>64.00,1,0.5
